In series [1] the test system is CYP enzymes, OCT1/OCT2, MATE 1, glucuronidation. The settings on record: cited from earlier work.
Series [2] is described as follows: Safety and tolerability assessments in the phase I studies. It counts as in vivo, healthy subjects. The settings on record: carisoprodol arm.
The format of series [3] is in vivo, healthy volunteers. The settings on record: for Tmax: both, human, plasma, oral; for AUC from time zero to time t (AUCt) decrease: data not shown.
Series [4] is classed as in vivo, healthy volunteers. The settings on record: for change in exposures: with any of the coadministered medications, apart from stated exceptions.
For series [5] the following is noted: coadministration with ritonavir; cited from earlier work.
The conditions of series [6]: coadministered with the 3D regimen; cited from earlier work.
[7] abbreviates: in the presence of the 3D regimen.
Where [8] appears, read: upon coadministration with the 3D regimen.
Setting [9] is: alone and with the 3D regimen (not affected / similar).
The mark [10] stands for this setting: coadministration with the 3D regimen.

Where “and” joins values, the source holds several entries; their conditions need not be identical. Equal values may be shown once. Read-outs that look alike come from different tables or passages of the source. Where only a bound is given, the exact number is not on record here.

We go through 15 molecules from paper PMC4933729 (Clinical Pharmacokinetics, 2016).

Turning to `CC(=O)Nc1ccc(O)cc1` [Acetaminophen], the Metabolic pathway entry in series [1] is on record as “Glucuronidation”.
One may read the Tmax as the time at which the peak concentration occurs. Take `CCCC(C)(COC(N)=O)COC(=O)NC(C)C` (stereo not shown) [Carisoprodol]: the subjects reporting somnolence entry in series [2] is reported as “five”. Besides, the Tmax in series [3] is 2 h. In addition, the Cmax decrease in series [3] (setting [7]) is listed as 46%. Besides, the exposures decrease in series [3] (setting [8]) is on record as at most 46%.
Regarding `CN(C)CCC=C1c2ccccc2C=Cc2ccccc21` [Cyclobenzaprine], the Metabolic pathway entry in series [1] was “CYP3A4, 1A2, and 2D6 substrate”. The molecule also gave a median tmax in series [3] (setting [9]) of 5.0 h. In addition, in series [3] (setting [7]), the Cmax decrease is 32% and the AUC decrease came out at 40%. In addition, in series [3] (setting [8]), the exposures decrease result is “up to 46%”. The exposures decrease in series [3] (upon coadministration with the 3D regimen, listed as cyclobenzaprine) was at most 40%.
For `COc1c(-c2ccc3cc(NS(C)(=O)=O)ccc3c2)cc(-n2ccc(=O)[nH]c2=O)cc1C(C)(C)C` [Dasabuvir], in series [4] (in the presence of SMZ/TMP), the AUC increase turned out to be 33%, the “change in (other) exposure parameters” value was below 20% and the exposures increase is on record as at most 33%. For the same molecule, the change in exposures in series [4] is at most 25%.
For the molecule `COc1ccc2c3c1O[C@H]1C(=O)CC[C@H]4[C@@H](C2)N(C)CC[C@]314` [Hydrocodone], the Tmax in series [3] turned out to be 2 h. For the same molecule, in series [3] (setting [7]), the AUC increase is 90% and the Cmax increase was found to be 27%.
With `CCCC(C)(COC(N)=O)COC(N)=O` [Meprobamate], the Tmax in series [3] lay in the range of 3 to 4 h. Further, in series [3] (setting [7]), the “AUC change (increase or decrease)” value is on record as below 20% and the “Cmax change (increase or decrease)” value is listed as below 20%.
With `CN(C)C(=N)N=C(N)N` [Metformin], the Metabolic pathway entry in series [1] is “OCT1/OCT2 substrate”. In series [3] (setting [9]), this molecule displayed a median tmax of 4.0 h. Moreover, in series [3] (setting [7]), the Cmax decrease is recorded as 23%; the AUC decrease is < 20% and 10%.
In the case of `CNCCC=C1c2ccccc2C=Cc2ccccc21` [Norcyclobenzaprine], in series [3] (setting [10]), the “harmonic mean t½” value was determined as 53 h and the median tmax came out at 24 h. Also, in series [3] (setting [7]), the “Cmax change (increase or decrease)” value is listed as below 20% and the AUC decrease came to 26%. For the same molecule, in series [3] (medication alone), the “harmonic mean t½” value is 86 h and the median tmax was determined as 36 h. Besides, in series [3] (with the 3D regimen), the “proportion of AUC extrapolated after the last measurable timepoint” value (from here on “proportion of AUC extrapolated”) is 21% and the “AUC from time zero to time t (AUCt) decrease” value was 7%. Further, the “proportion of AUC extrapolated” value in series [3] (without the 3D regimen) is listed as 42%.
Take `O=C1CN=C(c2ccccc2)c2cc(Cl)ccc2N1` [Nordiazepam]: the time to peak (Tmax) worked out at 48 h in series [3] and 96 h in series [3] (2 mg). For the same molecule, the Cmax increase in series [3] (setting [7]) was 10% and < 20%. The “proportion of AUC extrapolated” value in series [3] (with the 3D regimen) is 20%; in series [3] (without the 3D regimen), 46%. Also, the “AUC from time zero to time t (AUCt) decrease” value in series [3] (with the 3D regimen) amounted to 3%.
Regarding `COC(=O)N[C@H](C(=O)N1CCC[C@H]1C(=O)Nc1ccc([C@@H]2CC[C@@H](c3ccc(NC(=O)[C@@H]4CCCN4C(=O)[C@@H](NC(=O)OC)C(C)C)cc3)N2c2ccc(C(C)(C)C)cc2)cc1)C(C)C` [Ombitasvir], in series [4] (in the presence of SMZ/TMP), the “change in (other) exposure parameters” value is listed as below 20%. For the same molecule, the change in exposures in series [4] is listed as at most 25%.
With `Cc1cnc(C(=O)N[C@H]2CCCCC/C=C\[C@@H]3C[C@@]3(C(=O)NS(=O)(=O)C3CC3)NC(=O)[C@@H]3C[C@@H](Oc4nc5ccccc5c5ccccc45)CN3C2=O)cn1` [Paritaprevir], in series [4] (both, human, plasma, oral, median tmax, in the presence of metformin), the Tmax is 5.5 h. Moreover, in series [4] (in the presence of SMZ/TMP), the Cmax decrease is 22% and the “change in (other) exposure parameters” value is below 20%. The change in exposures in series [4] was at most 25%. In addition, in series [4] (with metformin), the Cmax decrease came to 37% and the Ctrough increase is 22%.
On to `CC(C)c1nc(CN(C)C(=O)N[C@H](C(=O)N[C@@H](Cc2ccccc2)C[C@H](O)[C@H](Cc2ccccc2)NC(=O)OCc2cncs2)C(C)C)cs1` [Ritonavir], for which, in series [4] (in the presence of SMZ/TMP), the “change in (other) exposure parameters” value is listed as below 20%. In addition, the change in exposures in series [4] is at most 25%.
In the case of `COc1cc(Cc2cnc(N)nc2N)cc(OC)c1OC` [Trimethoprim], the Metabolic pathway entry in series [1] was “Weak to moderate CYP2C8 inhibitor; weak OCT2 inhibitor; MATE 1 inhibitor”. Besides, in series [5], the “increase in AUC” value is 20%. In series [3] (setting [7]), the AUC increase came out at 22% and the Ctrough increase is 25%. Besides, in series [3] (setting [8]), the “changes in exposures (Cmax and AUC geometric mean ratios)” value is reported as at most 25%; the exposures increase is at most 20%.
On to `COc1c(-c2ccc3cc(NS(C)(=O)=O)ccc3c2)cc(-n2ccc(=O)[nH]c2=O)cc1C(C)(C)CO` [dasabuvir M1], for which the exposures decrease in series [4] (in the presence of SMZ/TMP, data not shown) was at most 19%.
Turning to `COc1ccc2[nH]c([S+]([O-])Cc3ncc(C)c(OC)c3C)nc2c1` (stereo not shown) [omeprazole], the exposures decrease in series [6] is on record as ~ 40%.
